From PMC9864219, “Chemodiversity and Anti-Leukemia Effect of Metabolites from Penicillium setosum CMLD 18” (Metabolites, 2022)

Experiments:
L1210 cells = system: L1210 cells; design: method as in PMID 6320499; conditions: read-out: IC50 inhibiting L1210 cells; cited from earlier work
Kasumi-1 [1] = experiment: Resazurin cell viability assay, Kasumi-1; format: cell-based, human; conditions: for cell viability: Kasumi-1, 100 μM, 48 h, resazurin (Figure 5A)
Description: (§1) Human leukemic cell lines (Kasumi-1, KG-1, MOLT-4, and Jurkat) were obtained from the American Type Culture Collection (ATCC). KG-1 cells were maintained in Iscove’s modified Dulbecco’s medium (IMDM) supplemented with 20% fetal bovine serum (FBS) (Cultilab, Campinas, Brazil), according to criteria adopted by the cell bank (https://www.atcc.org/products/ccl-246#detailed-product-information) accessed on 10 November 2021, whereas the other lineages were maintained in Roswell Park Memorial Institute medium (RPMI 1640) (Sigma Aldrich, St. Louis, MI, USA) supplemented with 10% FBS. All cells were cultured in a medium containing 100 U/mL penicillin (Sigma Aldrich, St. Louis, MI, USA) and 100 μg/mL streptomycin (Sigma Aldrich, St. Louis, MI, USA) and in a humidified incubator containing 5% CO2 at 37 °C. Passage numbers for all leukemic cell lines were between 3 and 6.
(§2) A resazurin assay (Sigma Aldrich, St. Louis, MI, USA) was used to screen and assess the activity of extracts, fractions, and isolated compounds against leukemic cell lines. Briefly, 10^5 cells/mL were seeded in 96-well plates containing supplemented medium. Cells were treated in the presence or absence of compounds for 48 h using a high concentration (100 µg/mL or 100 µM to isolated compounds) or a concentration–response curve (100, 50, 25, 12.5, 6.25, 3.12, 1.56, and 0.78 µM) after 24 h of treatment with isolated compounds was constructed. After treatment, the cell culture medium was removed, and 100 µL of medium with 10% Resazurin solution was added; after 4 h of incubation, the fluorescence was measured (excitation 530 nm, emission 590 nm) in a FlexStation 3 microplate reader (Molecular Devices, San Jose, CA, USA). Each experiment was performed in triplicate.

Jurkat [2] = experiment: Resazurin cell viability assay, Jurkat; format: cell-based, human; conditions: for cell viability: 100 μM, 48 h, resazurin (Figure 5B)
Description: as §1, §2

Jurkat [3] = system: Jurkat; design: method as in PMID 28509552; conditions: Alamar Blue, 72 hrs; cited from earlier work
K-562 = system: K-562; design: method as in PMID 28509552; conditions: Alamar Blue, 72 hrs; cited from earlier work
Hela = system: Hela; design: method as in PMID 28509552; conditions: Alamar Blue, 72 hrs; cited from earlier work
[4] = biological target: ACL, an ATP citrate lyase; design: method as in PMID 27997879; conditions: read-out: IC50 inhibitory activity against ACL; cited from earlier work
normal PBMC cells = experiment: Resazurin cell viability assay, normal PBMC; format: cell-based, human; conditions: concentration-response curve, 24 h
Protocol: Peripheral blood mononuclear cells (PBMCs) were obtained from three healthy donors. Human monocytes were collected from healthy donors after informed patient consent was obtained. Separation of mononuclear cells was performed by gradient centrifugation methods using Ficoll Histopaque-1077 (1.077 g/cm^3) (Sigma Aldrich, St. Louis, MI, USA) following the manufacturer’s instructions. The use of human samples was approved by the local Ethical Committee of the Universidade Federal de Mato Grosso do Sul (CAAE35853720.2.0000.0021). Cells were maintained in IMDM supplemented with 20% FBS, 100 U/mL penicillin, and 100 μg/mL streptomycin in a humidified atmosphere at 37 °C in 5% CO2.
A resazurin assay (Sigma Aldrich, St. Louis, MI, USA) was used to screen and assess the activity of extracts, fractions, and isolated compounds against leukemic cell lines. Briefly, 10^5 cells/mL were seeded in 96-well plates containing supplemented medium. […] After treatment, the cell culture medium was removed, and 100 µL of medium with 10% Resazurin solution was added; after 4 h of incubation, the fluorescence was measured (excitation 530 nm, emission 590 nm) in a FlexStation 3 microplate reader (Molecular Devices, San Jose, CA, USA). […]

Kasumi-1 [5] = experiment: Annexin V-FITC/7-AAD flow cytometry assay, Kasumi-1; format: cell-based, human; conditions: Kasumi-1, 50 μM, 24 h
Protocol: (§3) An Annexin V-FITC/7-AAD double staining assay was performed to evaluate the proapoptotic effect of 10. Kasumi-1 and Jurkat cells (10^5/mL) were treated for 24 h with EC50, 50, or 50 µM 10, respectively, or Staurosporine (1 µM) (Sigma Aldrich, St. Louis, MI, USA). Then, the cells were resuspended in annexin binding buffer (0.14 M NaCl, 2.5 mM CaCl2, 0.01 M HEPES, pH 7.4) and incubated at room temperature with 1 μL and 2 μL of annexin V-FITC and 7-AAD (Becton Dickinson, Covington, GA, USA), respectively, for 30 min. Data were analyzed using FlowJo V10 (Becton Dickinson—BD, USA) software; 20,000 events were collected per sample.

Jurkat [6] = experiment: Annexin V-FITC/7-AAD flow cytometry assay, Jurkat; format: cell-based, human; conditions: 50 μM, 24 h
Protocol: as §3

[7] = system: cleaved caspase-3 in Kasumi-1; experiment: Intracellular labeling of cleaved caspase-3 by flow cytometry, Kasumi-1; format: cell-based, human; conditions: Kasumi-1, 50 μM, 24 h
Protocol: (§4) Kasumi-1 and Jurkat cells (10^5/mL) were treated for 24 h with EC50, 50, or 50 µM 10, respectively. Then, cells were fixed with BD Cytofix (BD Biosciences, Mississauga, ON, Canadá) for 15 min, washed with BD Perm/Wash buffer, and permeabilized with Perm Buffer III (BD, USA) for 30 min at room temperature. In order to label cleaved caspase-3 protein (Cell Signaling, Danvers, MA, USA), cells were incubated for 1 h with primary antibody (1:800). Anti-rabbit IgG secondary antibodies conjugated with Alexa Fluor 488 (Thermo Fisher Scientific, Waltham, MA, USA) (1:1000) were incubated for at least 40 min, and the fluorescence was measured using an Accuri C6 flow cytometer and FlowJo software to analyze the results; 20,000 events were collected per sample. Protein analyses were performed using GM fluorescence intensity.

[8] = system: cleaved caspase-3 in Jurkat; experiment: Intracellular labeling of cleaved caspase-3 by flow cytometry, Jurkat; format: cell-based, human; conditions: 50 μM, 24 h
Protocol: as §4

Kasumi-1 [9] = experiment: Cell cycle analysis (PI) and cell count, Kasumi-1; format: cell-based, human; conditions: Kasumi-1, 10 μM, 72 h
Protocol: (§5) The distribution of cell cycle phases was determined by propidium iodide (PI) staining and flow cytometry analysis. Kasumi-1 and Jurkat cells (10^5/mL) were treated with 10 (10 μM or 1 μM, respectively) for 72 h. Then, the cells were fixed and permeabilized as previously described and treated with 4 μg/mL RNase (Sigma Aldrich, St. Louis, MI, USA) for 45 min at 37 °C. For DNA labeling, cells were incubated with 5 μg/mL of PI (Sigma Aldrich, St. Louis, MI, USA). Percentages of cells within cell cycle compartments (G1/G0, S, and G2/M) were performed using an Accuri C6 flow cytometer (BD Biosciences, Mississauga, Canadá). A total of 40,000 events were acquired.

Jurkat [10] = experiment: Cell cycle analysis (PI) and cell count, Jurkat; format: cell-based, human; conditions: 10 μM, 72 h
Protocol: as §5, with “Kasumi-1 and Jurkat cells (10^5/mL) were treated with 10 (10 μM or 1 μM, respectively) for 72 h.” left out

[11] = system: CD11b expression in Kasumi-1 cells; experiment: Cell differentiation by immunophenotyping (CD11b); format: cell-based, human; conditions: Kasumi-1, 10 μM, 72 h
Protocol: Cells (10^5/mL) were treated with 10 μM Compound 10 for 72 h. Then, the cells were collected and stained with CD11b-Cy7/PE (2 μL) (BD, USA). The measurements of fluorescence intensity were performed using an Accuri C6 flow cytometer (BD Biosciences, Mississauga, Canadá); 40,000 events were collected per sample. Results were expressed as GM fluorescence intensity.

HL-60 = system: HL-60; design: method as in doi:10.1016/j.cclet.2017.09.006; conditions: acute myeloid leukemia cell line; read-out: IC50 against the HL-60 lineage; cited from earlier work

In the case of `Cc1cc(O)c2c(c1)C(=O)c1cc(O)cc(O)c1C2=O` [Compound 3, emodin], the IC50 (L1210 cells) is listed as 35 µM.

For `O=C1c2cc(CO)cc(O)c2C(=O)c2c1cc(O)c(Cl)c2O` [Compound 7, 2-chloro-1,3,8-trihydroxy-6-(hydroxymethyl)anthracene-9,10-dione], the cell viability (Kasumi-1 [1]) is listed as “reduction in cell viability”, the cell viability (Jurkat [2]) is listed as “reduction in cell viability” and the “activity against Jurkat” value (Jurkat [3]) is listed as “inactive”. The “activity against K-562” value (K-562) was “inactive” and the “activity against Hela” value (Hela) was “inactive”.

For `Cc1cc(O)c2c(c1)C(=O)c1cc(O)c(Cl)c(O)c1C2=O` [Compound 8, 7-chloroemodin], the cell viability (Kasumi-1 [1]) is listed as “reduction in cell viability”, the cell viability (Jurkat [2]) is listed as “reduction in cell viability” and the IC50 [4] is listed as 12.6 µM.

For `CSC12CC3=COC=CC(OC(C)=O)C3N1C(=O)C1(SC)CC3=COC=CC(OC(C)=O)C3N1C2=O` (stereo not shown) [Compound 9, bisdethiobis(methylthio)acetylaranotine], the cell viability (Kasumi-1 [1]) was “reduction in cell viability” and the cell viability (Jurkat [2]) was “reduction in cell viability”.

With `C=CC(C)(C)c1[nH]c2ccccc2c1CC1NC(=O)C(Cc2c(C(C)(C)C=C)[nH]c3ccccc23)NC1=O` (stereo not shown) [Compound 10, fellutanine C] the EC50 (Kasumi-1 [1]; Homo sapiens, Kasumi-1, concentration-response curve, 24 h, resazurin) was 50 µM, the cell viability (Kasumi-1 [1]) was “reduction in cell viability” and the cell viability (Jurkat [2]) was “reduction in cell viability”. For the same compound, the EC50 (Jurkat [2]; Homo sapiens, concentration-response curve, 24 h, resazurin) was 50 µM, the “cytotoxicity effect on normal PBMC cells” value (normal PBMC cells) was “did not show a cytotoxicity effect” and the “cell death mode (Annexin V-FITC and 7-AAD staining)” value (Kasumi-1 [5]) was “predominant apoptosis staining (Anx-FITC+/7 AAD-)”. For the same compound, the “cell death mode (Annexin V-FITC and 7-AAD staining)” value (Jurkat [6]) was “predominant double staining (late apoptosis and necrosis-like)”, the cleaved-caspase-3 [7] was “increased cleaved-caspase-3” and the cleaved-caspase-3 [8] was “increased cleaved-caspase-3”. The “cell proliferation (cell count)” value (Kasumi-1 [9]) was “reduction in cell proliferation”, the “cell viability at the cell cycle concentration” value (Kasumi-1 [9]) was “did not observe a reduction in cell viability” and the cell cycle distribution (Kasumi-1 [9]; PI staining) was “cell cycle arrest in G0/G1”. The “cell proliferation (cell count)” value (Jurkat [10]) was “reduction in cell proliferation”, the “cell viability at the cell cycle concentration” value (Jurkat [10]) was “did not observe a reduction in cell viability” and the cell cycle distribution (Jurkat [10]; PI staining) was “cell cycle arrest in G0/G1”. For the same compound, the “expression of mature myeloid marker CD11b” value [11] was “did not produce an increase in the expression of CD11b” and the IC50 (HL-60) was 9.34 µM.
